The values below come from US8318641B2, “Systems and methods for the detection of biomarkers” (priority 2010, dated 2012).

For one assay, the system named is peroxidase. The assay can be described thus: Peroxidase assay in saliva (Amplex Red). In kind it is biochemical. The following applies: test compound prepared at 500 ppm, 30 minutes, FIGS. 26-29. The method, then: To determine the effect of various GRAS compounds as inhibitors of peroxidase activity, a standard assay using Amplex® Red (Life Technologies), which releases a fluorescent oxidation product.
The test compounds, such as GRAS materials or cocktails of same, were prepared at a concentration of 500 ppm in distilled water. For the assay, 50 μl samples of test compounds were mixed with 20-30 μl of saliva (either “pooled” or “unpooled”) prior to the addition of Amplex® Red. […] Reactions were allowed to run for 30 minutes during these assays.

A further assay concerns the target T1, Lysozyme (Homo sapiens, UniProt P61626).
T1 sequence (P61626 19-148): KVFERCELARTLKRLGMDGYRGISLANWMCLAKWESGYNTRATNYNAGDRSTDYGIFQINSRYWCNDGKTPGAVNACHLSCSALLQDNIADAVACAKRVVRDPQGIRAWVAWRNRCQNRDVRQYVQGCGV
The assay can be described thus: Lysozyme inhibition saliva screening (fluorescein-labeled Micrococcus lysodeikticus). In kind it is biochemical. The following applies: 100% saliva samples (data not shown). The source says: Further details of these five compounds may also be seen in Table 5.

For the next assay, the target named is T2, α-amylase (Homo sapiens, UniProt P0DUB6).
T2 sequence (P0DUB6 16-511): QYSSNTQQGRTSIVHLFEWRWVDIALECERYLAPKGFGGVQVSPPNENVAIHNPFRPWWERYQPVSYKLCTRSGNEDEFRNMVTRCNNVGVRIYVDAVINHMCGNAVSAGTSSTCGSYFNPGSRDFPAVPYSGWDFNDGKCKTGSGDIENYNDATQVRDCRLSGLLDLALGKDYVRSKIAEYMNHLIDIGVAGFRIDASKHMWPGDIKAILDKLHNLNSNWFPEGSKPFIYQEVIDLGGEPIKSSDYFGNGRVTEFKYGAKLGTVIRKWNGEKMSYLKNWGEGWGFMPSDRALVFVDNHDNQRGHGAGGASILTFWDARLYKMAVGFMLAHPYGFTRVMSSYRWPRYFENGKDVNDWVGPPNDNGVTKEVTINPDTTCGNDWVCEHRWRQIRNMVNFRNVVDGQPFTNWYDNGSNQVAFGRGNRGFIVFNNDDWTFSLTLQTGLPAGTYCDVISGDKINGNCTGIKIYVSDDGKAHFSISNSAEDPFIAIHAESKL
The assay can be described thus: α-Amylase inhibition saliva screening (2-chloro-p-nitrophenol-maltotriose substrate, absorbance 405 nm). It counts as biochemical. The text has this: Further details of these five compounds may also be seen in Table 4.

Another assay concerns protease. The following applies: cited from earlier work.

For `Cn1c(=O)c2c(ncn2C)n(C)c1=O` [CDI #33, Caffeine], the peroxidase inhibition result in the assay on peroxidase is “significant peroxidase inhibition capabilities”.

For `COc1ccc(O)c(C(C)(C)C)c1` [CDI-039, 3-tert--butyl-hydroxyanisole], the peroxidase inhibition result in the assay with peroxidase is listed as “significant peroxidase inhibition capabilities”.

Turning to `CC(=O)O` [CDI-047, Acetic acid], at Lysozyme, the Lysozyme inhibition result was “shown to inhibit Lysozyme”.

With “Aluminum potassium sulfate dodecahydrate [CDI-42]”, on α-amylase (Time 0 min), the “Ave (absorbance at 405 nm)” value is reported as 0.92. In the assay with peroxidase, the peroxidase inhibition entry was “significant peroxidase inhibition capabilities”.

With Aluminum sulfate hydrate [CDI-34], the “Ave (absorbance at 405 nm)” value at α-amylase (Time 0 min) was found to be 0.40; at α-amylase (Time 5 min) it was 0.50; on α-amylase (Time 15 min) it was 0.56.

B1: Soybeans: primary soybean protease inhibitor, 20.7-22.3 kDa (protein, UniProt P01070 25-205, looked up)
Trypsin inhibitor A: DFVLDNEGNPLENGGTYYILSDITAFGGIRAAPTGNERCPLTVVQSRNELDKGIGTIISSPYRIRFIAEGHPLSLKFDSFAVIMLCVGIPTEWSVVEDLPEGPAVKIGENKDAMDGWFRLERVSDDEFNNYKLVFCPQQAEDDKCGDIGISIDHDDGTRRLVVSKNKPLVVQFQKLDKESL
Turning to B1, the Inhibitory power in the assay with protease is 1.2 times times weight.
